Holding throughout (assay type): cell-based
Experiment [1] has as its system SW480 cells. Nature of the experiment: MTT cell viability assay, SW480. To be noted: Homo sapiens, 72 h incubation, mean ± SD. As to the method: (§1) The effect of the compounds on cell viability was evaluated using the MTT assay. HCT116 (3000 cells/well), SW620 (8000 cells/well), SW480 (6000 cells/well), Caco-2 (4000 cells/well), A375 (1500 cells/well), MiaPaca-2 (2000 cells/well), and BJ (10,000 cells/well) cells were seeded in 96-well plates. After 24 h, the growth medium was replaced with a fresh medium containing the desired concentration of the compound or DMSO (control). After 72 h of incubation, the supernatant was removed and 100 µL of a mixture (1:1) of filtered MTT solution (1 mg/mL in PBS) with FBS-free medium was added to each well. After 1 h of incubation at 37 °C, the mixture was removed and 100 µL of DMSO was added to each well to dissolve the formed formazan crystals. Absorbance was immediately measured at 570 nm using a Benchmark Plus Microplate Reader (Bio-Rad Laboratories, Hercules, CA, USA). IC50 values were calculated using GraphPad Prism 9 software (GraphPad Software, San Diego, CA, USA) and expressed as the mean ± standard deviation (SD) of at least three independent experiments.

For experiment [2], the system named is HCT116 colorectal cancer cell line. As to the kind of experiment: MTT cell viability assay, HCT116. To be noted: Homo sapiens, HCT-116, 72 h incubation, mean ± SD. As to the method: The antiproliferative activity of CA 1 and its derivatives was evaluated against a colorectal cancer (CRC) cell line (HCT116) using the MTT assay. The anticancer drug cisplatin was used as the reference drug.
as §1

Experiment [3] concerns SW480 cells. As to the kind of experiment: Cell proliferation assay and cell doubling time. To be noted: SW480 cells treated at IC50 concentration; control 42 h. As to the method:
SW480 cells were seeded at a concentration of 1.68 × 10^5 cells per well in 6-well plates and incubated at 37 °C. […] Prior to treatment initiation (0 h), cells were trypsinized, washed with DPBS, and collected by centrifugation. The collected cells were resuspended in DPBS containing trypan blue and examined using an Invitrogen Countess 3 Automated Cell Counter (Thermo Fisher Scientific, Waltham, MA, USA) to determine the cell number and viability. This procedure was replicated at various treatment time points (24, 48, and 72 h) to generate a cell proliferation curve depicting the changes over time. Cell doubling time was calculated by dividing the natural logarithm of 2 by the growth rate.

The test system of experiment [4] is SW480 cells. As to the kind of experiment: Apoptosis assay (annexin V-FITC/PI, FACS). To be noted: SW480, IC50 concentration. The text has this: Apoptosis can be detected by staining the cells with annexin V and propidium iodide (PI). […] However, during the early stages of apoptosis, the membrane flips and PS is exposed on the outer side of the cell membrane. Thus, annexin V fluorescently labeled with fluorescein isothiocyanate (FITC) binds with high affinity for PS. In late apoptosis/necrosis, the cells experience a ruptured membrane, allowing Annexin V to interact with the entire cell membrane. At this stage, the nuclear membrane loses its integrity, which facilitates the binding of PI to DNA. Thus, this dual-staining protocol allows for the detection and quantification of live cells (annexin V−, PI−), early apoptotic cells (annexin V+, PI−), and late apoptotic/necrotic cells (annexin V+, PI+).
SW480 cells (1.68 × 10^5 cells/well) were seeded in 6-well plates and incubated at 37 °C for 24 h. Subsequently, the growth medium was replaced with fresh medium (control) or compound 14 at the previously determined IC50 concentration. Following incubation for 24, 48, or 72 h, the adherent cells were gently detached by trypsinization, washed with DPBS, and collected by centrifugation. Similarly, the cells in suspension were washed with DPBS and collected by centrifugation, along with the adhered cells. […]

Experiment [5] relates to SOD2 (MnSOD). Nature of the experiment: Western blot, SOD2 (MnSOD) expression in SW480 cells. To be noted: SW480, IC50 concentration, 24, 48 and 72 h. How it is done: (§2) SW480 cells (1.68 × 10^5 cells/well) were seeded in 6-well plates and incubated at 37 °C for 24 h. […] At the end of the treatment period, cells were washed twice with ice-cold DPBS and incubated for 30 min. at 4 °C with lysis buffer containing 20 mM Tris-HCl (pH 7.5), 1 mM DTT, 0.2% Triton X-100, 1 mM Na-EDTA, 0.5 mM sodium deoxycholate, 1% proteases inhibitor cocktail, and 0.5% phosphatases inhibitor cocktail. The cells were scraped, sonicated, and centrifuged at 12,000× g for 20 min. at 4 °C. The supernatants were recovered, and the protein concentration was quantified using Pierce^TM BCA protein assay reagents A and B and Pierce^TM bovine serum albumin standard ampules (2 mg/mL).
(§3) Membranes were blocked with 5% skim milk in PBS-Tween-20 (0.1%) for 1 h at room temperature, following its incubation with the specific primary antibodies overnight at 4 °C (CDK4, CDK6, and SOD2 (MnSOD)). Exceptionally, the primary antibody against actin was only incubated for 30 min. at room temperature. The membranes were then washed with PBS-Tween-20 (0.1%) and incubated for 40 min. with an anti-mouse secondary antibody or for 1 h with an anti-rabbit secondary antibody. After incubation, the membranes were washed again with PBS-Tween-20 (0.1%) and treated with the Immobilon Western Chemiluminescent HRP Substrate Kit. […]

Experiment [6] relates to Caco-2 cells. As to the kind of experiment: MTT cell viability assay, Caco-2. To be noted: Homo sapiens, 72 h incubation, mean ± SD. As to the method: as §1
For experiment [7], the system named is CDK4. As to the kind of experiment: Western blot, CDK4 expression in SW480 cells. To be noted: SW480, IC50 concentration, 24 and 72 h. As to the method: as §2, §3

SMILES strings stand for the structures.

As for `CC(=O)Oc1c(C(C)C)cc2c(c1OC(C)=O)[C@@]1(NC(=O)NCCc3cccc(Cl)c3)CCCC(C)(C)[C@@H]1CC2` [Compound 14, (4bR,8aS)-4b-(3-(3-chlorophenethyl)ureido)-2-isopropyl-8,8-dimethyl-4b,5,6,7,8,8a,9,10-octahydrophenanthrene-3,4-diyl diacetate], the concentration for half-maximal inhibition (IC50) in experiment [1] was found to be 6.1 ± 0.3 µM; in experiment [2], 9.8 ± 0.5 µM; in experiment [6], 8 ± 0.5 µM. Besides, the cell doubling time in experiment [3] is on record as 70 h. Besides, the “increase of cells in late apoptosis/necrosis” value in experiment [4] (48 and 72 h) was “not sustained”. For the same compound, the “percentage of cells in late apoptosis/necrosis” value in experiment [4] (24 h, control 6.5%) was found to be 8.3%. In experiment [5], the “expression of SOD2 (MnSOD)” value is listed as “no significant changes”. The “CDK4 expression versus untreated cells” value in experiment [7] is “downregulation”.

The values are drawn from article PMC11728001, “Design, Synthesis, and Biological Evaluation of Novel Urea-Containing Carnosic Acid Derivatives with Anticancer Activity” (International Journal of Molecular Sciences, 2024).
